Experimental data taken from patent US20100048545A1, “Compounds and Compositions for Use in the Prevention and Treatment of Disorders of Fat Metabolism and Obesity” (INNODIA INC., priority 2006, published 2010).

What was measured:
[1] = system: normal Wistar rats fed a high fat, high sucrose diet (HFHS); assay: Prevention of weight gain in rat model of diet-induced obesity (HFHS diet), 28 days; details: 100 mg/kg twice daily oral; for weight gain: HFHS diet
Text: The aim of this study was to evaluate the effect of chronic administration of 4-hydroxyisoleucine (4-OH, Compound 14a) on food consumption, tissue weight, and body weight gain of normal Wistar rats fed a high fat, high sucrose diet (HFHS).
The animals were acclimated for 1 week and fed standard chow prior to the commencement of treatment, then for the 28 days of the treatment the animals were fed a high fat, high sucrose diet (HFHS). A total of 30 animals were used in the study. The animals were distributed into 3 groups each composed of 10 animals: 1 group fed HFHS with treatment, 1 untreated control group fed standard chow, and 1 untreated group fed HFHS. Animals were housed separately and food consumption was monitored daily.
For the four weeks of treatment, the test compounds were dissolved in reverse osmosis water. 4-hydroxyisoleucine (4-OH) was aliquoted and kept at 4° C. Treated animals received twice daily oral administration of 4-OH at 100 mg/kg per dose. Control animals received water twice daily.

[2] = system: obese mice; assay: Compound 22 and 4-hydroxyisoleucine on weight gain of obese mice, 21 days; type: in vivo, C57BL/6 mice; details: p<0.01
Experimental: The objective of the following study was to evaluate the effect of the lactone form of 4-hydroxyisoleucine (compound 22) on the weight gain of obese mice. 40 C57BL/6 mice were fed a high fat diet (60% of calories from fat) for 6 weeks in order to induce obesity. Animals were than randomized to 5 study groups of 8 mice each according to their body weight values. Thereafter, the animals were treated orally twice daily with either the water vehicle, 50 mg/kg of compound 22, 100 mg/kg of compound 22, 50 mg/kg of 4-hydroxyisoleucine or 100 mg/kg of 4-hydroxyisoleucine. The treatment lasted 21 days and body weight of mice were determined daily from day 1 to day 21 of the study.

C[C@@H]([C@H](C)O)[C@H](N)C(=O)O [Compound 14a, (2S,3R,4S)-4-Hydroxyisoleucine]
epididymal and peri-renal adipose tissue [1]: reduction of epididymal and peri-renal adipose tissue
food consumption [1]: reduction in food consumption
muscle, brown fat, and organ weight [1]: not affected
tolerability of treatment [1]: well tolerated
weight gain [1]: prevention of weight gain
weight gain ([1]; listed as 4-OH): Moderation of weight gain was observed
body weight ([2]; 100 mg/kg orally twice daily, 21 days, vs water control): significant reduction of body weight compared to the water control group
white fat mass (epididymal fat) ([2]; 100 mg/kg, end of treatment): loss of the white fat mass (epididymal fat)
